Laboratory results published in article PMC5225183, “Fingerprinting of neurotoxic compounds using a mouse embryonic stem cell dual luminescence reporter assay” (Archives of Toxicology, 2016).

Tested on: plasma protein
Experiment: Plasma protein binding (plasma bound fraction)
Format: in vitro ADME
Conditions: assumed, no specific indications found
Description: The lipid content and albumin concentrations of the test media N2 and BHK medium were calculated on the basis of the available information provided by the suppliers (Fig. S2A). The data on rat plasma have been adopted from (Verwei et al. [2006]). The original references are (Barber et al. [1990]) for albumin and (DeJongh et al. [1997]) for lipids. Human plasma values were taken from (Gulden and Seibert [2003]). The original data on albumin are from (Lindup [1987]) and for lipids from (Patterson et al. [1988]). Total protein concentrations were calculated based on the assumption that the protein molar mass is similar to the one of albumin (66 kDa). […]
(a) Developmental toxicity (DT)—inducing concentrations were extrapolated from the in vivo study reported in the document by the Australian Therapeutic Goods Administration (Australian Therapeutic Goods Administration [2014]). […] (c) The nominal in vitro concentrations equivalent to the concentration used in vivo were calculated using the value of total protein concentration instead of albumin concentration. […]
(c) The nominal in vitro concentrations equivalent to the concentration used in vivo in rats and humans (Cmax and Cavg) were determined assuming only binding to the specific drug-binding proteins (albumin and/or α1-acid glycoprotein) (Fig. S2D).

SMILES: COC1=C2C[C@@H](C)C[C@H](OC)[C@H](O)[C@@H](C)/C=C(\C)[C@H](OC(N)=O)[C@@H](OC)/C=C\C=C(/C)C(=O)NC(=CC1=O)C2=O [Geldanamycin]
- fb,pl (plasma bound fraction): 99%
